Experimental data as given in patent publication US7504096B1, “Methods for in vitro fertilization” (The United States of America as represented by the …, priority 1999, dated 2009).

Test system: ovariectomized mice
Test: Blastocyst implantation after embryo transfer in ovariectomized, steroid-primed mice (LIF as replacement for nidatory estrogen)
Assay type: in vivo
Conditions: for Nos. Implanted / Nos. Pregnant: E2 1 injection of 40 ng or LIF 3 injections of 5 μg 1 hour apart, analysis four days later
Procedure: Mice were ovariectomized and allowed to recover for 18 days before starting experimental manipulation. Priming of the uterus by steroid hormones was started by the injection of 100 ng of Estrogen on each of 3 consecutive days. On the 6th day the mice were given a single injection of Progesterone in the form of Depo-Provera. Three days later an average of 6 blastocysts, either directly isolated from females or from cultures started the previous day when the embryos were at the 8-cell stage were surgically transferred to the right uterine horn. After the mice had recovered from surgery they were either given 1 injection of 40 ng of estrogen or 3 injections, 1 hour apart, of 5 μg LIF. Four days later (equivalent to Day 7-8 of pregnancy) the mice were sacrificed for analysis, and the implantation sites recovered.

[1] = Blastocyst type at time of transfer: D4 cultured, E2 36 blastocysts (6 recipients), LIF 42 (7)
[2] = Blastocyst type at time of transfer: D4 direct, 36 blastocysts in 6 recipients

LIF: cytokine Leukemia Inhibitory Factor, recombinant, member of the IL-6 family of cytokines
Nos. Implanted [1]: 16
Nos. Pregnant [1]: 5
Nos. Implanted [2]: 30
Nos. Pregnant [2]: 6
Inducing embryo implantation in place of estrogen (result in words) (injection of LIF versus injection of estrogen, Table 1 protocol): can unequivocally replace the injection of estrogen for inducing embryo implantation
